Assay [1] concerns conditional caspase 3 (iCasp3). The assay is described as follows: ROCK1 cleavage in cardiomyocytes infected with Ad-G/iCasp3 (conditional caspase 3) and treated with CID. As to conditions: for 130 kDa cleavage fragment of ROCK1: cardiomyocytes infected with Ad-G/iCasp3 and treated with CID. The format is cell-based, rat. From the text:
To analyze direct effect of caspase 3 activation on ROCK1 cleavage, the present inventors introduced a conditional caspase 3 via an adenoviral-mediated expression system in cultured rat neonatal cardiomyocytes. The adenoviral vector, Ad-G/iCasp3, has been described previously (Shariat et al., 2001; Mallet et al., 2002). This vector expresses a conditional caspase 3 (iCasp3), in which the human caspase 3 was fused to a modified FK506-binding domain, containing a binding site for a non-toxic chemical inducer of dimerization (CID), AP20187. Addition of CID leads to the aggregation and activation this caspase, and a rapid apoptosis in prostate cancer cells (Shariat et al., 2001; Mallet et al., 2002). This is depicted in FIG. 8C.
Cell culture, plasmid constructs, and recombinant adenoviruses. Neonatal rat cardiomyocytes were isolated and cultured in DMEM/F12 medium (1:1) with 10% horse serum (DF10); cells were ready for transfection or virus infection 40 hours after plating. For immunostaining, cells were cultured on pre-coated (with 0.2% gelatin) coverslips. Transfections were performed using LipofectAMINE 2000 (Invitrogen) with Opti-MEM I Reduced Serum Medium (Invitrogen). After 6 hr or O/N, cells were cultured in DF10. With human embryonic kidney (HEK) A293T cells, cells were cultured in DMEM with 10% fetal bovine serum. The cDNA for full length human ROCK-1 cloned into the pCAG-myc vector (pCAG-ROCK-1) was kindly provided by Dr. Narumiya. All ROCK-1 and mutant constructs were tagged with a Myc epitope at the amino-terminus. The Asp718-MscI cDNA fragment encoding ROCKΔ1 mutant (residues 1-1080) was also cloned into the pCAG-myc vector (pCAG-ROCKΔ1) (Ishizaki et al., 1997). A signal lysine at residue 105 was replaced by alanine to generate a kinase deficient mutant, pCAG-ROCK-1KD. The adenoviral vector, Ad-G/iCasp 3, expressing conditional caspase 3, was generously provided by Drs. David Spencer and Kevin Slawin at Baylor College of Medicine. […]

The test system of assay [2] is human growth hormone (hGH) transgene. The assay is described as follows: Cardiac-specific RU486-inducible gene-switch expression of human growth hormone in bi-transgenic mice. It is filed as in vivo, mouse. As to conditions: after 4 days of administration, dose-dependent, estimated.
Experimental: Expression of the transgene is induced in all 4 chambers of the bi-transgenic hearts by administration of RU486 for 4 days. […] The serum level of hGH was measured by radioimmunoassay.
Assay [3] deals with myeline basic protein (MBP) kinase (MBP-kinase). The assay is described as follows: Kinase-Glo luminescent kinase assay. The format is biochemical. As to conditions: SRF-N as substrate, ATP. How it is done: In a particular embodiment, the Kinase-Glo luminescent kinase assay from Promega (Madison, Wis.) is employed, which comprises a method of measuring kinase activity by quantifying the amount of ATP remaining in solution following a kinase reaction. […] In additional embodiments, the Km and/or kcat for SRF-N against MBP-Kinase and the IC50 or Ki for PH domain are measured, such as by standard methods in the art.
FIG. 25B illustrates the role of ROCK in processing of its substrates in the presence of ATP.

Another assay relates to protein kinases A and C. As to conditions: lower affinity than that for Rho kinase; cited from earlier work.
In assay [4] the test system is Dahl salt-sensitive hypertensive rats. As to conditions: administration to Dahl salt-sensitive hypertensive rats; cited from earlier work.
A further assay deals with early chick embryos. As to conditions: treated early chick embryos; cited from earlier work.
For a further assay, the system named is ROCK1. The assay is described as follows: ROCK1 cleavage in doxorubicin-treated cultured neonatal rat cardiomyocytes (Western blot). The format is cell-based. The source says:
To determine if ROCK1 is cleaved by caspase 3 in apoptotic cardiomyocytes, the present inventors subjected cultured rat neonatal cardiomyocytes to doxorubicin treatment, which is a potent apoptotic inducer. The 130 kDa cleavage fragment of ROCK1 was detected in doxorubicin-treated myocytes as well as the cleaved PARP. In contrast, cleavage of ROCK2 was not observed. In addition, cleavage of ROCK1 is caspase 3-dependent, as the 130 kDa species was not detected in the presence of caspase 3 inhibitor, Z-VAD.
Cell culture, plasmid constructs, and recombinant adenoviruses. Neonatal rat cardiomyocytes were isolated and cultured in DMEM/F12 medium (1:1) with 10% horse serum (DF10); cells were ready for transfection or virus infection 40 hours after plating. For immunostaining, cells were cultured on pre-coated (with 0.2% gelatin) coverslips. Transfections were performed using LipofectAMINE 2000 (Invitrogen) with Opti-MEM I Reduced Serum Medium (Invitrogen). After 6 hr or O/N, cells were cultured in DF10. With human embryonic kidney (HEK) A293T cells, cells were cultured in DMEM with 10% fetal bovine serum. The cDNA for full length human ROCK-1 cloned into the pCAG-myc vector (pCAG-ROCK-1) was kindly provided by Dr. Narumiya. All ROCK-1 and mutant constructs were tagged with a Myc epitope at the amino-terminus. The Asp718-MscI cDNA fragment encoding ROCKΔ1 mutant (residues 1-1080) was also cloned into the pCAG-myc vector (pCAG-ROCKΔ1) (Ishizaki et al., 1997). A signal lysine at residue 105 was replaced by alanine to generate a kinase deficient mutant, pCAG-ROCK-1KD. The adenoviral vector, Ad-G/iCasp 3, expressing conditional caspase 3, was generously provided by Drs. David Spencer and Kevin Slawin at Baylor College of Medicine. Addition of CID, AP20187 (50 nM, 24 hr), provoked the aggregation and activation of caspase 3 as well as rapid apoptosis (Shariat et al., 2001; Mallet et al., 2002).
Western blot and Malachite green assay. Anti-ROCK-1, caspase 3, PARP, His, α-actin antibodies (Santa Cruz), anti-phospho-AKTser473 (Cell Signaling) and anti-RTEN (Upstate) were purchased. Protein samples for Western blot were prepared and separated as described earlier (Chang et al., 2000). Even loadings were confirmed by Ponceau staining and antibody probed for actin. PTEN activity was evaluated by Malachite green assay (Upstate). 500 μg of cell lysate protein was used for immunoprecipitation.
A general note: In western blotting, separated proteins are transferred to a membrane and probed.

In assay [5] the test system is angiotensin II-infused rats. As to conditions: administration of fasudil; cited from earlier work.
The test system of a further assay is caspase 3. The assay is described as follows: Ceramide-induced caspase 3 activation and apoptosis in cardiomyocytes (caspase 3 sensor, fluorescent staining). It is filed as cell-based, rat. As to conditions: without siRNA treatment. The protocol:
Apoptosis assay and immunofluorescence analysis. Apoptosis was evaluated using caspase 3 activity and poly(ADP-ribose) polymerase (PARP) cleavage with Western blot in human and mouse heart tissues. With regard to apoptotic cultured neonatal cardiomyocytes, a caspase 3 sensor (BD Biosciences) was introduced to detect the onset of caspase 3 activity (FIG. 9). The vector encodes EYFP (enhanced yellow fluorescent protein) fused with NES (nuclear export signal) and NLS (nuclear localization signal). A caspase 3 specific cleavage site is located between EYFP and NES. […] Upon induction of apoptosis, the export signal is removed by active caspase 3, which triggers the redistribution of EYFP from the cytosol to the nucleus via NLS. The quantification was performed by counting the number of transfected cells with the nuclear localization of fluorescent fusion protein over the total transfected cells. Alexa Fluor 594 phalloidin staining (Molecular Probes) and DAPI staining were applied for F-actin and cellular nuclei visualization, respectively.
siRNAs application for ROCK-1 and PTEN knockdown and ceramide-induced apoptosis. To knockdown ROCK-1 expression in neonatal rat cardiomyocytes, 100 nM siRNA (Ambion) was used with co-transfection of caspase 3 sensor vector as described above. Same amount of siRNA specific for PTEN (Ambion) was applied to human HEK cells. […]

The mark [6] stands for this setting: doxorubicin-treated myocytes, Western blot.

Here are results for seven molecules from US20060142193A1, “Selective inhibition of rock1 in cardiac therapy” (BAYLOR COLLEGE OF MEDICINE, priority 2004, published 2006).

Entries after “also recorded” stand apart in the source; their conditions may differ.

Turning to `CC[C@H](C(=O)N1CCCC[C@H]1C(=O)O[C@H](CCc1ccc(OC)c(OC)c1)c1cccc(OCC(=O)NCC(CNC(=O)COc2cccc([C@@H](CCc3ccc(OC)c(OC)c3)OC(=O)[C@@H]3CCCCN3C(=O)[C@@H](CC)c3cc(OC)c(OC)c(OC)c3)c2)CN(C)C)c1)c1cc(OC)c(OC)c(OC)c1` [AP20187], the “cleavage of SRF” value in [1] (Ad-G/iCasp3 in the presence of CID, data not shown) is recorded as “not detectable”. For the same molecule, the “130 kDa cleavage fragment of ROCK1” value in assay [1] is “detected”; in [1] (listed as CID) it was “cleavage of ROCK-1 only in the presence of CID”.
On to `CC#C[C@]1(O)CC[C@H]2[C@@H]3CCC4=CC(=O)CCC4=C3[C@@H](c3ccc(N(C)C)cc3)C[C@@]21C` [RU486], for which the “inducible level of hGH in the transgenic heart versus the basal level” value in [2] is given as 100 to 1000 fold.
Take `C[C@@H](N)[C@H]1CC[C@H](C(=O)Nc2ccncc2)CC1` [Y27632]: the “inhibition activity against MBP-kinase” value in assay [3] was “inhibition activity”. Moreover, the “affinity for protein kinases A and C relative to Rho kinase” value in the assay on protein kinases A and C was “about 200 times”. Moreover, in assay [4], the “effect on cardiac hypertrophy and remodeling” value was “regression of cardiac hypertrophy and decreased pathological remodeling”. Besides, the “expression of cardiac α-actin (early cardiac differentiation marker)” value in the assay on early chick embryos is reported as “precocious expression of cardiac α-actin was observed”.
On to `COc1cccc2c1C(=O)c1c(O)c3c(c(O)c1C2=O)C[C@@](O)(C(=O)CO)C[C@@H]3O[C@H]1C[C@H](N)[C@H](O)[C@H](C)O1` [doxorubicin], for which the “cleavage of ROCK2” value in the assay with ROCK1 (doxorubicin-treated myocytes) is on record as “not observed”. Also, in the assay on ROCK1 (setting [6]), the “130 kDa cleavage fragment of ROCK1” value was “detected; also recorded: revealed cleavages” and the “cleaved PARP” value is “detected; also recorded: revealed cleavages”. Moreover, in the assay on ROCK1 (doxorubicin-treated neonatal cardiomyocytes, data not shown), the “cleavage of SRF” value is reported as “not detectable”.
`O=S(=O)(c1cccc2cnccc12)N1CCCNCC1` [fasudil]: the “effect on angiotensin II-induced cardiovascular changes” value in [5] is “suppresses angiotensin II-induced coronary vascular hypertrophy, endothelial dysfunction and cardiomyocyte hypertrophy”.
For Z-VAD, the “130 kDa ROCK1 species in presence of caspase 3 inhibitor” value in the assay with ROCK1 (doxorubicin-treated myocytes plus inhibitor) is “not detected; also recorded: blocked the cleavage”.
Consider ceramide, for which the “induction of caspase 3 activation and cellular apoptosis” value in the assay on caspase 3 is recorded as “strongly induced caspase 3 activation”.
